The values below are quoted from earlier work in patent US20210181185A1, “DENDRITIC CELL RECRUITMENT FROM BLOOD TO BRAIN IN NEURODEGENERATIVE DISEASE” (priority 2017, published 2021).

For this data set the following is noted: free DiO.

In the case of `CCCCCCCCCCCCCCCCCCN1/C(=C\C=C\c2oc3ccccc3[n+]2CCCCCCCCCCCCCCCCCC)Oc2ccccc21.[O-][Cl+3]([O-])([O-])[O-]` [DiO], the “Clearance of free dye from blood” value was “rapidly cleared from blood”.
